Measurements published in patent US7820201B2, “System for manufacturing controlled release dosage forms, such as zero-order release profile dosage form manufactured by three-dimensional printing” (Massachusetts Institute of Technology, priority 2001, dated 2010).
Like-named read-outs stand apart in the source and are kept apart here.

Details: for ko, best fit rate constant for equation 9: Co 280 mgAPI/cc, 3-D release, simulated intestinal fluid pH 7.4, 37° C.
Excerpt: The concentration C0 refers to the amount of API per unit volume in the dosage form after compression.
Each of the API release curves in FIG. 16 was fit to Equation 9 by performing a least-squares fit between the empirical data and model. This was done to determine the relevance of the model, and to determine rate constants for the powder/API systems for later use. […] For this purpose, the rate constants in the two different directions were assumed to be equal.
The erosion rate constants are given in units of mg/hr cm^2 where mg is mg of API released into the dissolution fluid. R^2 is a statistical measure of correlation, with a value of 1 indicating perfect correlation.

O=C(O)Cc1ccccc1Nc1c(Cl)cccc1Cl [diclofenac sodium]
linear erosion rate constant delta r/delta t (70% Lactose: 30% HPMC conventional tablets): 0.341 mm/hr
ko, best fit rate constant for equation 9 (Lactose:HPMC 60:40, 100 mg API): 6.092 mg/hr · cm^2
ko, best fit rate constant for equation 9 (Lactose:HPMC 70:30, 100 mg API): 9.540 mg/hr · cm^2
ko, best fit rate constant for equation 9 (Lactose:HPMC 80:20, 100 mg API): 22.238 mg/hr · cm^2
